“And” between values parts separate entries of the source, which are not always exact repeats. Identical values can stand only once.
Tested on: SW1271 complex spheroids with HUVEC/MSC, growth, % test/control
Assay: Anticancer human tumor SW1271 cell line growth inhibition [AhR];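 further: spheroids exposed to agents for 7 days before readout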
Conditions: for viability, T/C: stronger effect = lower value
Summary of the method: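 Agents were dosed in half-log steps down from roughly clinical Cmax, or from 10 microM where Cmax was unknown, alone and with AhR antagonists. Read-out: percent test/control growth of tumor spheroids containing HUVEC and MSC stromal cells.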

[1] = curve of first compound, second compound 0.1 µM
[2] = curve of first compound, second compound 0.316 µM
[3] = curve of first compound, second compound 1 µM
[4] = curve of first compound, second compound 3.16 µM
[5] = curve of first compound, second compound 10 µM
[6] = second compound 0.1 µM, first compound 0.0316 µM
[7] = second compound 0.1 µM, first compound 0.1 µM
[8] = second compound 0.1 µM, first compound 0.316 µM
[9] = second compound 0.1 µM, first compound 1 µM
[10] = second compound 0.1 µM, first compound 3.16 µM
[11] = second compound 0.1 µM, first compound 10 µM
[12] = second compound 0.316 µM, first compound 0.0316 µM
[13] = second compound 0.316 µM, first compound 0.1 µM
[14] = second compound 0.316 µM, first compound 0.316 µM
[15] = second compound 0.316 µM, first compound 1 µM
[16] = second compound 0.316 µM, first compound 3.16 µM
[17] = second compound 0.316 µM, first compound 10 µM
[18] = second compound 1 µM, first compound 0.0316 µM
[19] = second compound 1 µM, first compound 0.1 µM
[20] = second compound 1 µM, first compound 0.316 µM
[21] = second compound 1 µM, first compound 1 µM
[22] = second compound 1 µM, first compound 3.16 µM
[23] = second compound 1 µM, first compound 10 µM
[24] = second compound 3.16 µM, first compound 0.0316 µM
[25] = second compound 3.16 µM, first compound 0.1 µM
[26] = second compound 3.16 µM, first compound 0.316 µM
[27] = second compound 3.16 µM, first compound 1 µM
[28] = second compound 3.16 µM, first compound 3.16 µM
[29] = second compound 3.16 µM, first compound 10 µM
[30] = second compound 10 µM, first compound 0.0316 µM
[31] = second compound 10 µM, first compound 0.1 µM
[32] = second compound 10 µM, first compound 0.316 µM
[33] = second compound 10 µM, first compound 1 µM
[34] = second compound 10 µM, first compound 3.16 µM
[35] = second compound 10 µM, first compound 10 µM

Q: What does the source list for `COc1cc(Nc2ncc3c(n2)-c2ccc(Cl)cc2C(c2c(F)cccc2OC)=NC3)ccc1C(=O)O` + Cc1cncc(-c2nc(NCCc3c[nH]c4ccccc34)c3ncn(C(C)C)c3n2)c1?
A: IC50 [1]: > 10000 nM; IC50 [2]: > 10000 nM; IC50 [3]: > 10000 nM; IC50 [4]: > 10000 nM; IC50 [5]: < 31.6 nM; viability, T/C [6]: 92.7%; viability, T/C [7]: 91.6%; viability, T/C [8]: 98.6%; viability, T/C [9]: 93.9%; viability, T/C [10]: 78.3%; viability, T/C [11]: 67.7%; viability, T/C [12]: 91%; viability, T/C [13]: 87.8%; viability, T/C [14]: 92%; viability, T/C [15]: 91%; viability, T/C [16]: 98.4%; viability, T/C [17]: 57.5%; viability, T/C [18]: 81.5%; viability, T/C [19]: 87.2%; viability, T/C [20]: 88.2%; viability, T/C [21]: 88.6%; viability, T/C [22]: 81.3%; viability, T/C [23]: 56.2%; viability, T/C [24]: 95.1%; viability, T/C [25]: 87.5%; viability, T/C [26]: 91.9%; viability, T/C [27]: 102%; viability, T/C [28]: 78.9%; viability, T/C [29]: 67.9%; viability, T/C [30]: 36.1%; viability, T/C [31]: 50.7%; viability, T/C [32]: 49.5%; viability, T/C [33]: 50.1%; viability, T/C [34]: 42.5%; viability, T/C [35]: 40.4%

Q: With `CC(C)CC(NC(=O)C(Cc1ccccc1)NC(=O)c1cnccn1)B(O)O` (configuration not stated) as the compound, how does the viability, T/C (compound 0.000949 µM) read?
A: 97.1% and 109% and 95.8%

Q: And the viability, T/C (compound 0.003 µM)?
A: 89.3% and 86% and 67.3%

Q: And the viability, T/C (compound 0.00949 µM)?
A: 7.81% and 7.15% and 1.46%

Q: What about the viability, T/C (compound 0.03 µM) of the same compound?
A: 0.75% and 0.78% and 0.59%

Q: And the viability, T/C (compound 0.0949 µM)?
A: 0.47% and 0.58% and 0.43%

Q: What about the viability, T/C (compound 0.3 µM) of the same compound?
A: 0.64% and 0.89% and 0.44%

Q: And the IC50 (curve of compound)?
A: 5.23 nM and 5.07 nM and 4.06 nM

Q: Which IC50 [1] does the source give for `COc1cc(Nc2ncc3c(n2)-c2ccc(Cl)cc2C(c2c(F)cccc2OC)=NC3)ccc1C(=O)O` + Cc1ccccc1N=Nc1ccc(NC(=O)c2ccnn2C)c(C)c1 here?
A: > 10000 nM

Q: What about the IC50 [2] of the same compound?
A: > 10000 nM

Q: And the IC50 [3]?
A: 8760 nM

Q: What about the IC50 [4] of the same compound?
A: > 10000 nM

Q: And the IC50 [5]?
A: > 10000 nM

Q: What about the viability, T/C [6] of the same compound?
A: 73.8%

Q: And the viability, T/C [7]?
A: 65.6%

Q: And the viability, T/C [8]?
A: 77.2%

Q: And the viability, T/C [9]?
A: 52.5%

Q: What about the viability, T/C [10] of the same compound?
A: 61%

Q: And the viability, T/C [11]?
A: 50.9%

Q: What about the viability, T/C [12] of the same compound?
A: 72.5%

Q: What about the viability, T/C [13] of the same compound?
A: 67.1%

Q: What about the viability, T/C [14] of the same compound?
A: 79.2%

Q: And the viability, T/C [15]?
A: 65.9%

Q: What about the viability, T/C [16] of the same compound?
A: 62.7%

Q: What about the viability, T/C [17] of the same compound?
A: 53.2%

Q: And the viability, T/C [18]?
A: 81.8%

Q: And the viability, T/C [19]?
A: 81%

Q: And the viability, T/C [20]?
A: 74.4%

Q: And the viability, T/C [21]?
A: 72%

Q: What about the viability, T/C [22] of the same compound?
A: 85.5%

Q: And the viability, T/C [23]?
A: 46.4%

Q: And the viability, T/C [24]?
A: 87.3%

Q: And the viability, T/C [25]?
A: 72.5%

Q: And the viability, T/C [26]?
A: 66%

Q: And the viability, T/C [27]?
A: 57.9%

Q: What about the viability, T/C [28] of the same compound?
A: 68.9%

Q: What about the viability, T/C [29] of the same compound?
A: 60.2%

Q: What about the viability, T/C [30] of the same compound?
A: 65.3%

Q: What about the viability, T/C [31] of the same compound?
A: 94.1%

Q: And the viability, T/C [32]?
A: 65.7%

Q: What about the viability, T/C [33] of the same compound?
A: 60.5%

Q: What about the viability, T/C [34] of the same compound?
A: 75.8%

Q: And the viability, T/C [35]?
A: 53.8%

Q: Which results are given for `Nc1ccn(C2OC(CO)C(O)C2(F)F)c(=O)n1` (configuration not stated) + Cc1cncc(-c2nc(NCCc3c[nH]c4ccccc34)c3ncn(C(C)C)c3n2)c1?
A: IC50 [1]: > 10000 nM; IC50 [2]: > 10000 nM; IC50 [3]: > 10000 nM; IC50 [4]: > 10000 nM; IC50 [5]: < 31.6 nM; viability, T/C [6]: 75.4%; viability, T/C [7]: 97.1%; viability, T/C [8]: 67%; viability, T/C [9]: 64%; viability, T/C [10]: 62.7%; viability, T/C [11]: 54.6%; viability, T/C [12]: 60.5%; viability, T/C [13]: 65.8%; viability, T/C [14]: 68%; viability, T/C [15]: 64.3%; viability, T/C [16]: 66.9%; viability, T/C [17]: 56.8%; viability, T/C [18]: 74.2%; viability, T/C [19]: 72.8%; viability, T/C [20]: 85.4%; viability, T/C [21]: 65%; viability, T/C [22]: 67.8%; viability, T/C [23]: 58.4%; viability, T/C [24]: 81.1%; viability, T/C [25]: 78.6%; viability, T/C [26]: 103%; viability, T/C [27]: 65%; viability, T/C [28]: 81.8%; viability, T/C [29]: 75.2%; viability, T/C [30]: 39.5%; viability, T/C [31]: 38.2%; viability, T/C [32]: 39.3%; viability, T/C [33]: 36.7%; viability, T/C [34]: 37.8%; viability, T/C [35]: 30.6%

Q: Which IC50 [1] does the source give for `O=C(C=Cn1cnc(-c2cc(C(F)(F)F)cc(C(F)(F)F)c2)n1)NNc1cnccn1` + Cc1cncc(-c2nc(NCCc3c[nH]c4ccccc34)c3ncn(C(C)C)c3n2)c1 here?
A: 913 nM

Q: And the IC50 [2]?
A: 2330 nM

Q: What about the IC50 [3] of the same compound?
A: 2470 nM

Q: And the IC50 [4]?
A: > 3000 nM

Q: What about the IC50 [5] of the same compound?
A: < 9.49 nM

Q: What about the viability, T/C (second compound 0.1 µM, first compound 0.00949 µM) of the same compound?
A: 83.3%

Q: What about the viability, T/C (second compound 0.1 µM, first compound 0.03 µM) of the same compound?
A: 103%

Q: And the viability, T/C (second compound 0.1 µM, first compound 0.0949 µM)?
A: 87.1%

Q: What about the viability, T/C (second compound 0.1 µM, first compound 0.3 µM) of the same compound?
A: 82.4%

Q: And the viability, T/C (second compound 0.1 µM, first compound 0.949 µM)?
A: 48.6%

Q: What about the viability, T/C (second compound 0.1 µM, first compound 3 µM) of the same compound?
A: 44.6%

Q: And the viability, T/C (second compound 0.316 µM, first compound 0.00949 µM)?
A: 88.2%

Q: What about the viability, T/C (second compound 0.316 µM, first compound 0.03 µM) of the same compound?
A: 91.9%

Q: What about the viability, T/C (second compound 0.316 µM, first compound 0.0949 µM) of the same compound?
A: 88%

Q: And the viability, T/C (second compound 0.316 µM, first compound 0.3 µM)?
A: 74.5%

Q: And the viability, T/C (second compound 0.316 µM, first compound 0.949 µM)?
A: 65.9%

Q: What about the viability, T/C (second compound 0.316 µM, first compound 3 µM) of the same compound?
A: 45.6%

Q: And the viability, T/C (second compound 1 µM, first compound 0.00949 µM)?
A: 105%

Q: What about the viability, T/C (second compound 1 µM, first compound 0.03 µM) of the same compound?
A: 96.6%

Q: And the viability, T/C (second compound 1 µM, first compound 0.0949 µM)?
A: 97.7%

Q: What about the viability, T/C (second compound 1 µM, first compound 0.3 µM) of the same compound?
A: 72.2%

Q: What about the viability, T/C (second compound 1 µM, first compound 0.949 µM) of the same compound?
A: 62.8%

Q: And the viability, T/C (second compound 1 µM, first compound 3 µM)?
A: 47%

Q: What about the viability, T/C (second compound 3.16 µM, first compound 0.00949 µM) of the same compound?
A: 97.7%

Q: And the viability, T/C (second compound 3.16 µM, first compound 0.03 µM)?
A: 88.2%

Q: And the viability, T/C (second compound 3.16 µM, first compound 0.0949 µM)?
A: 97.5%

Q: And the viability, T/C (second compound 3.16 µM, first compound 0.3 µM)?
A: 87.7%

Q: What about the viability, T/C (second compound 3.16 µM, first compound 0.949 µM) of the same compound?
A: 67.7%

Q: And the viability, T/C (second compound 3.16 µM, first compound 3 µM)?
A: 53.2%

Q: And the viability, T/C (second compound 10 µM, first compound 0.00949 µM)?
A: 44.4%

Q: What about the viability, T/C (second compound 10 µM, first compound 0.03 µM) of the same compound?
A: 48.4%

Q: And the viability, T/C (second compound 10 µM, first compound 0.0949 µM)?
A: 55%

Q: What about the viability, T/C (second compound 10 µM, first compound 0.3 µM) of the same compound?
A: 59.3%

Q: What about the viability, T/C (second compound 10 µM, first compound 0.949 µM) of the same compound?
A: 50.1%

Q: And the viability, T/C (second compound 10 µM, first compound 3 µM)?
A: 47.7%

Source: PubChem BioAssay AID1919017 (Molecular Pharmacology Branch, DTP, NCI, 2023)
